# Measurements published in patent publication US11547681B2, “N-acylethanolamide derivatives and uses thereof” (ELIEM THERAPEUTICS, INC., priority 2016, dated 2023).
# Like-named read-outs stand apart in the source and are kept apart here.
# Test: Simulated intestinal fluid (SIF) stability in the presence of various enzymes
# Format: in vitro ADME
# Conditions: for % Remaining of Initial: 1 μM, n = 1
# Method: (§1) Studies were carried out in simulated intestinal fluid in the presence of various enzymes. Simulated intestinal fluid was prepared by dissolving 6.8 g of monobasic potassium phosphate in 1.0 L of water. Aliquots of this solution were taken and the pH was adjusted to 6.8. Individual enzymes were then spiked into aliquots for each experiment. A DMSO stock was first prepared for the test article. Aliquots of the DMSO solution were dosed into 700 μL of matrix, which had been pre-warmed to 37° C., at a final test article concentration of 1 μM. […] Samples were stored at 4° C. until the end of the experiment. After the final time point was sampled, the plate was mixed and then centrifuged at 3,000 rpm for 10 minutes. Calibration standards were prepared in matched matrix. […] Analytical conditions are outlined in Appendix 8-1.
# as §1, with “10-1.” for “8-1.”
# Studies were carried out in simulated intestinal fluid in the presence of various enzymes. Simulated intestinal fluid was prepared by dissolving 6.8 g of monobasic potassium phosphate in 1.0 L of water. Aliquots of this solution were taken and the pH was adjusted to 6.8. Individual enzymes were then spiked into aliquots for each experiment. A DMSO stock was first prepared for test article. Aliquots of the DMSO solution were dosed into 700 μL of matrix, which had been pre-warmed to 37° C., at a final test article concentration of 1 μM. […] Samples were stored at 4° C. until the end of experiment. After final time point was sampled, the plate was mixed and then centrifuged at 3,000 rpm for 10 minutes. Calibration standards were prepared in matched matrix. […] Analytical conditions are outlined in Appendix 13-1.
# as §1, with “17-1.” for “8-1.”
compound,measurement,setting,value
CCCCCCCCCCCCCCCC(=O)NCCOC(=O)CCC(=O)OC(CO)CO [Compound I-8],% Remaining of Initial,"SIF + Carboxypeptidase A, 0 min",100%
same,% Remaining of Initial,"SIF + Carboxypeptidase A, 15 min",33%
same,% Remaining of Initial,"SIF + Carboxypeptidase A, 30 min",8.7%
same,% Remaining of Initial,"SIF + Carboxypeptidase A, 60 min",<1.0%
same,% Remaining of Initial,"SIF + Carboxypeptidase A, 120 min",<1.0%
same,% Remaining of Initial,"SIF + Carboxypeptidase B, 0 min",100%
same,% Remaining of Initial,"SIF + Carboxypeptidase B, 15 min",30%
same,% Remaining of Initial,"SIF + Carboxypeptidase B, 30 min",7.1%
same,% Remaining of Initial,"SIF + Carboxypeptidase B, 60 min",<1.0%
same,% Remaining of Initial,"SIF + Carboxypeptidase B, 120 min",<1.0%
same,% Remaining of Initial,"SIF + Chymotrypsin, 0 min",100%
same,% Remaining of Initial,"SIF + Chymotrypsin, 15 min",36%
same,% Remaining of Initial,"SIF + Chymotrypsin, 30 min",8.7%
same,% Remaining of Initial,"SIF + Chymotrypsin, 60 min",<1.0%
same,% Remaining of Initial,"SIF + Chymotrypsin, 120 min",<1.0%
same,% Remaining of Initial,"SIF + Elastase, 0 min",100%
same,% Remaining of Initial,"SIF + Elastase, 15 min",38%
same,% Remaining of Initial,"SIF + Elastase, 30 min",17%
same,% Remaining of Initial,"SIF + Elastase, 60 min",16%
same,% Remaining of Initial,"SIF + Elastase, 120 min",17%
same,% Remaining of Initial,"SIF + Trypsin, 0 min",100%
same,% Remaining of Initial,"SIF + Trypsin, 15 min",52%
same,% Remaining of Initial,"SIF + Trypsin, 30 min",31%
same,% Remaining of Initial,"SIF + Trypsin, 60 min",28%
same,% Remaining of Initial,"SIF + Trypsin, 120 min",25%
same,half-life at 1 μM,"simulated intestinal fluid with carboxypeptidase A, pH 6.8, SIF + Carboxypeptidase A, read-out: Half-life",< 15 min
same,half-life at 1 µM,"simulated intestinal fluid with carboxypeptidase A, pH 6.8, SIF + Carboxypeptidase A, read-out: Half-life, calculated value in parentheses",9.2 min
same,half-life at 1 µM,"simulated intestinal fluid with carboxypeptidase B, pH 6.8, SIF + Carboxypeptidase B, read-out: Half-life",< 15 min
same,half-life at 1 µM,"simulated intestinal fluid with carboxypeptidase B, pH 6.8, SIF + Carboxypeptidase B, read-out: Half-life, calculated value in parentheses",8.5 min
same,half-life at 1 μM,"simulated intestinal fluid with chymotrypsin, pH 6.8, SIF + Chymotrypsin, read-out: Half-life",< 15 min
same,half-life at 1 μM,"simulated intestinal fluid with chymotrypsin, pH 6.8, SIF + Chymotrypsin, read-out: Half-life, calculated value in parentheses",9.6 min
same,half-life at 1 μM,"simulated intestinal fluid with elastase, pH 6.8, SIF + Elastase, read-out: Half-life",< 15 min
same,half-life at 1 µM,"simulated intestinal fluid with elastase, pH 6.8, SIF + Elastase, read-out: Half-life, calculated value in parentheses",12 min
same,half-life at 1 μM,"simulated intestinal fluid with trypsin, pH 6.8, SIF + Trypsin, read-out: Half-life",25 min
